Reference: ChEMBL document CHEMBL1138948, “Design, synthesis, and evaluation of proline and pyrrolidine based melanocortin receptor agonists. A conformationally restricted dipeptide mimic approach” (J Med Chem, 2006)

Tests used:
Melanocortin receptor 3 [1] = target: T1, Melanocortin receptor 3 (Homo sapiens, UniProt P41968); test: Agonist activity at human MC3R transfected in HEK293 cells; type: functional, cell-based
Melanocortin receptor 4 [2] = target: T2, Melanocortin receptor 4 (Homo sapiens, UniProt P32245); test: Agonist activity at human MC4R transfected in HEK293 cells; type: functional, cell-based
T2 sequence (P32245 whole entry): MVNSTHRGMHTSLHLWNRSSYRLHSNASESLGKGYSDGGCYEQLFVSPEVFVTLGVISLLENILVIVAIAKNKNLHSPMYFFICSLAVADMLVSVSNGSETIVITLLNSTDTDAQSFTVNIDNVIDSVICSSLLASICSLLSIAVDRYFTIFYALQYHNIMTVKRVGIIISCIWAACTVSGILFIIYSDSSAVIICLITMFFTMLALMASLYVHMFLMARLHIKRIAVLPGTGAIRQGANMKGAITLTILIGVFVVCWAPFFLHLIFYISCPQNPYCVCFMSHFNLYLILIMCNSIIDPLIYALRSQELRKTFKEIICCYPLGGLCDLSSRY

Melanocortin receptor 3 [3] = target: T1, Melanocortin receptor 3; test: Displacement of europium labeled NDP-alpha-MSH from human MC3R expressed in HEK293 cells; type: cell-based
[4] = target: T3, Melanocyte-stimulating hormone receptor (Homo sapiens, UniProt Q01726); test: Displacement of europium labeled NDP-alpha-MSH from human MC1R expressed in HEK293 cells; type: cell-based
T3 sequence (Q01726 whole entry): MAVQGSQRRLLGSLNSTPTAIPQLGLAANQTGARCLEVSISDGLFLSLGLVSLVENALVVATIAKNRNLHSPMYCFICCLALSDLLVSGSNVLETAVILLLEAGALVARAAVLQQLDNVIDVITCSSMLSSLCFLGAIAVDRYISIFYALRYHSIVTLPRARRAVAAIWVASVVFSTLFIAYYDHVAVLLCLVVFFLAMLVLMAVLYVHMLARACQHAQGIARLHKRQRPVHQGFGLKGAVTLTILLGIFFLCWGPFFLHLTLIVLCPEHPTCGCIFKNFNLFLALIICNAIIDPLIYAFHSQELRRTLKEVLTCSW

Melanocortin receptor 4 [5] = target: T2, Melanocortin receptor 4; test: Displacement of europium labeled NDP-alpha-MSH from human MC4R expressed in HEK293 cells; type: cell-based
[6] = target: T3, Melanocyte-stimulating hormone receptor; test: Agonist activity at human MC1R transfected in HEK293 cells; type: functional, cell-based
[7] = Absorptive permeability across Caco-2 cell membrane; type: ADME, cell-based; conditions: human, read-out: permeability (converted)
[8] = Exsorptive permeability across Caco-2 cell membrane; type: ADME, cell-based; conditions: human, read-out: permeability (converted)

T1 sequence (P41968 whole entry): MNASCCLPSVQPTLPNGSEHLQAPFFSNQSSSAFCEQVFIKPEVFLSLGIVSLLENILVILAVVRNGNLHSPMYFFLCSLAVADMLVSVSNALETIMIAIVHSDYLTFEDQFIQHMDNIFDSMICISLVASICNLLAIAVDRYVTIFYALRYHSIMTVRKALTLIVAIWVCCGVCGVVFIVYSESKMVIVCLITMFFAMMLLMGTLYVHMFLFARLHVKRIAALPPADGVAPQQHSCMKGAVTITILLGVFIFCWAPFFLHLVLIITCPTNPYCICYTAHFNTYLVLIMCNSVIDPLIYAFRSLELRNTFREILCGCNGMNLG

Structure (SMILES)	EC50 (Melanocortin receptor 3 [1]) [nM]	EC50 (Melanocortin receptor 4 [2]) [nM]	Ki (Melanocortin receptor 3 [3]) [nM]	Ki [4] [nM]	Ki (Melanocortin receptor 4 [5]) [nM]	EC50 [6] [nM]	Papp A→B [7] [×10⁻⁶ cm/s]	Papp [8] [×10⁻⁶ cm/s]
CC(=O)N[C@H](Cc1ccccc1)C(=O)N1C[C@H](OCc2ccc3ccccc3c2)C[C@@H]1CCCN=C(N)N	1380	317	289	463	90	232	7.5	6.17
CC(=O)N[C@@H](Cc1cnc[nH]1)C(=O)N[C@H](Cc1ccccc1)C(=O)N1C[C@H](OCc2ccc3ccccc3c2)C[C@@H]1C(=O)NCCN=C(N)N	340	152	824	13	1580	3	1	0.5
